Assay results: patent US5447911A, “Ghilanten antimetastatic principle from the south american leech, Haementeria ghilianii” (Merrell Dow Pharmaceuticals Inc., priority 1994, dated 1995)

Test system: B16 melanoma F10 cells
Experiment: Metastatic spread of B16-F10 melanoma cells to the lungs of C57/BL mice
Format: in vivo
Experimental: To confirm the anti-metastatic activity of the proteinaceous substances of this invention, 1×10^5 viable B16 melanoma F10 line cells were injected i.v. through the tail vein of C57/BL mice. The antimetastatic factor was then administered i.v. at -2, +2, +4 and +6 hours relative to the tumor innoculum at t=0 hours. At the end of 15 days, the animals were sacrificed and the number of metastatic foci in the lungs were quantitated. The results observed are summarized in Table 1 below, with n indicating the number of animals used in the test.
B16 melanoma F10 cells (1 × 10^5 cells/animal) were injected i.v.
into the tail vein of C57/Bl mice on day 0. Vehicle: 10 mM Hepes, 0.15M
NaCl, pH 7.4 containing 10 mg/ml BSA; recombinantHirudin (25 antithrombin
units) and FXa inhibitor (1-2 μg) were injected into the mice i.v. at
-2, +2, +4, +6 hrs. after tumor cell innoculation. The animals were
sacrificed at 14 days post tumor cell innoculation. The lungs were
dissected, fixed, and the number of pulmonary metas tases were determined
under a dissecting microscope. […]

[1] = Table 1, recombinant hirudin 25 antithrombin units or FXa inhibitor 1-2 μg i.v. at -2, +2, +4, +6 hrs, versus vehicle control

## Hirudin
Table 1, lungs, recombinant hirudin 25 antithrombin units or FXa inhibitor 1-2 μg i.v. at -2, +2, +4, +6 hrs, 14 days post innoculation
  No. of Metastatic Foci (Mean + S.E.; n = 6): 198 ± 10
[1]
  % Inhibition (metastatic foci): 0%
  % Potentiation (metastatic foci): 21%
Administered -2, +2, +4 and +6 hours relative to tumor cell innoculation
  Effect on metastasis (in words): caused a moderate increase in metastatic foci
